Data published in PMC6431176 (Proceedings of the National Academy of Sciences of the …, 2019).

Molecular target: T1, Stl1 (Saccharomyces cerevisiae, UniProt P39932)
T1 sequence (P39932 1-569): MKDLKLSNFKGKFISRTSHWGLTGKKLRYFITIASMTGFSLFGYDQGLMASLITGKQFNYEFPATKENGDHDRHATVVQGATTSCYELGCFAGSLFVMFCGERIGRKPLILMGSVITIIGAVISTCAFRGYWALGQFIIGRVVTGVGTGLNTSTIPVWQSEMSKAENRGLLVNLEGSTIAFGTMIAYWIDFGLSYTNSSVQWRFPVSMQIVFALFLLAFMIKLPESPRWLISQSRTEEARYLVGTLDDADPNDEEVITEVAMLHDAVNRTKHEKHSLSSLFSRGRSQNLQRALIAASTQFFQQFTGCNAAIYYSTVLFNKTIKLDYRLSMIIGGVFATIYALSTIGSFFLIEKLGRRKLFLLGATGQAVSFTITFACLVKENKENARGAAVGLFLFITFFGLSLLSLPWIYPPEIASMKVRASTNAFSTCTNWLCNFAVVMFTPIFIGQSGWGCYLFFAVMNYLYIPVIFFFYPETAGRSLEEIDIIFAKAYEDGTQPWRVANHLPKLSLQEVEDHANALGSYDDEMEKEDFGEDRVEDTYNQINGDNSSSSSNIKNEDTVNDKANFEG
Test: […]-glycerol accumulation in S. cerevisiae
Type: cell-based
Conditions: labelled compound; 1 mM, Tris/citrate pH 5.0, 30 °C

OCC(O)CO [glycerol]
14C-glycerol accumulation in S. cerevisiae: higher uptake rate of glycerol by the Stl1 transporter compared with the HGT-1 transporter
